Experimental data reported in patent US8404708B2, “Dual NK1/NK3 receptor antagonists” (Hoffmann-La Roche Inc., priority 2004, dated 2013).
Where two headings read alike, the source gives them in different places.

Assays:
[1] = molecular target: T1, Recombinant human NK3 (hNK3) receptor (Homo sapiens, UniProt P29371); experiment: NK3 receptor binding, [3H]SR142801 displacement, membrane preparations
T1 construct: expressed in transfected cells
T1 sequence (P29371 1-465): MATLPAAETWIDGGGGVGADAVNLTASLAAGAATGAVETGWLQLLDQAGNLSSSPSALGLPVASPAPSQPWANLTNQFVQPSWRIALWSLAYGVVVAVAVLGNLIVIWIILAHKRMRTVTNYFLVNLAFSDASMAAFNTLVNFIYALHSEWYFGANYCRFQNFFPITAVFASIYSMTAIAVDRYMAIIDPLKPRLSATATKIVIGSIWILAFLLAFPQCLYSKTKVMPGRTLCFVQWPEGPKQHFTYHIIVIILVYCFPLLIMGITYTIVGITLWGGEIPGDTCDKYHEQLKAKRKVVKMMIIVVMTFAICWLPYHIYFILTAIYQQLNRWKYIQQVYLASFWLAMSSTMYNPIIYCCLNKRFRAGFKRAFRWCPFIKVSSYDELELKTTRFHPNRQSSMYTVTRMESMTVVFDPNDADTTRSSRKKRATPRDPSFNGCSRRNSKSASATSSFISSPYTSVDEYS
Experimental: Non specific binding was determined using 10 μM SB222200. Assay buffer consisted of Tris-HCl (50 mM, pH 7.4), BSA (0.1%), MnCl2 (4 mM) and phosphoramidon (1 μM). Membrane preparations of hNK3 receptors (approximately 2.5 μg/well in a 96 well plate) were used to initiate the incubation for 90 min at room temperature. This assay was terminated by rapid filtration under vacuum through GF/C filters, presoaked for 90 min with PEI (0.3%), with 3×0.5 ml washes of ice-cold Tris buffer (50 mM, pH 7.4) containing 0.1% BSA. The radioactivity retained on the filters was measured by scintillation counting. All assays were performed in duplicate in at least two separate experiments.

human NK1 receptor = human NK1 receptor (Homo sapiens, UniProt P25103); experiment: NK1 receptor binding, [3H]substance P displacement, CHO cell membranes
[2] = second value of the cell pKi NK1/NK3, hNK3 receptor, [3H]SR142801
[3] = first value of the cell pKi NK1/NK3, human NK1 receptor, [3H]substance P
[4] = second value of the cell NK1/NK3, read-out: pKi NK3 (converted)
[5] = first value of the cell NK1/NK3, read-out: pKi NK1 (converted)

human NK1 receptor, sequence (P25103 whole entry): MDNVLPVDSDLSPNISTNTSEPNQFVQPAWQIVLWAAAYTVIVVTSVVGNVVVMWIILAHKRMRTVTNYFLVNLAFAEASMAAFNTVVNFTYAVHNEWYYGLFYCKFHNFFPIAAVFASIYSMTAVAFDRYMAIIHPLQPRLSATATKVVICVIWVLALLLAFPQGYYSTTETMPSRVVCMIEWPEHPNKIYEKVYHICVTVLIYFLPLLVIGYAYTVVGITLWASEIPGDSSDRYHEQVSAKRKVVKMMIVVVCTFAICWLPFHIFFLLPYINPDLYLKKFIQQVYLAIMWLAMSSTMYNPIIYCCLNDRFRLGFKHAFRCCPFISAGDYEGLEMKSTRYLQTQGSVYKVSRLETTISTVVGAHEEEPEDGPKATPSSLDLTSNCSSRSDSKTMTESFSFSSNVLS

Structure (SMILES) | Ki [1, 2] [nM] | Ki (human NK1 receptor; [3]) [nM] | Ki [1, 4] [nM] | Ki (human NK1 receptor; [5]) [nM]
Cc1ccccc1-c1cc(NC[C@@H](O)CO)ncc1N(C)C(=O)C(C)(C)c1cc(C(F)(F)F)cc(C(F)(F)F)c1 [Example 123, (R)-2-(3,5-Bis-trifluoromethyl-phenyl)-N-[6-(2,3-dihydroxy-propylamino)-4-o-tolyl-pyridin-3-yl]-N-methyl-isobutyramide] | 12.6 | 2.51 | – | –
COc1cc(Cl)cc(C(C)(C)C(=O)N(C)c2cnc(N3C[C@H](O)C[C@H]3CO)cc2-c2ccc(F)cc2C)c1 [Example 31, (2S,4R)-2-(3-Chloro-5-methoxy-phenyl)-N-[4-(4-fluoro-2-methyl-phenyl)-6-(4-hydroxy-2-hydroxymethyl-pyrrolidin-1-yl)-pyridin-3-yl]-N-methyl-isobutyramide] | 1.66 | 0.977 | – | –
CN(C(=O)C(C)(C)c1cc(C(F)(F)F)cc(C(F)(F)F)c1)c1cnc(N2C[C@@H](O)C[C@H]2CO)cc1-c1ccccc1C(F)(F)F [Example 243, (2S,4S)-2-(3,5-Bis-trifluoromethyl-phenyl)-N-[6-(4-hydroxy-2-hydroxymethyl-pyrrolidin-1-yl)-4-(2-trifluoromethyl-phenyl)-pyridin-3-yl]-N-methyl-isobutyramide] | – | – | 4.68 | 3.89
Cc1cc(F)ccc1-c1cc(NC(CO)CO)ncc1N(C)C(=O)C(C)(C)c1cc(C(F)(F)F)cc(C(F)(F)F)c1 [Example 142, 2-(3,5-bis-trifluoromethyl-phenyl)-N-[4-(4-fluoro-2-methyl-phenyl)-6-(2-hydroxy-1-hydroxymethyl-ethylamino)-pyridin-3-yl]-N-methyl-isobutyramide] | 2.57 | 1.29 | – | –
CN(C(=O)C(C)(C)c1cc(C(F)(F)F)cc(C(F)(F)F)c1)c1cnc(N2CC[C@H](O)[C@H]2CO)cc1-c1ccc(Cl)cc1Cl [Example 137, (2R,3S)-2-(3,5-Bis-trifluoromethyl-phenyl)-N-[4-(2,4-dichloro-phenyl)-6-(3-hydroxy-2-hydroxymethyl-pyrrolidin-1-yl)-pyridin-3-yl]-N-methyl-isobutyramide] | 1.35 | 2.82 | – | –
CN(C(=O)C(C)(C)c1cc(C(F)(F)F)cc(C(F)(F)F)c1)c1cnc(N[C@@H]2CCCC[C@H]2O)cc1-c1ccccc1Cl (racemic) [Example 151, (1RS,2RS)-2-(3,5-Bis-trifluoromethyl-phenyl)-N-[4-(2-chloro-phenyl)-6-(2-hydroxy-cyclohexylamino)-pyridin-3-yl]-N-methyl-isobutyramide] | 27.5 | 1.15 | – | –
CN(C(=O)C(C)(C)c1cc(C(F)(F)F)cc(C(F)(F)F)c1)c1cnc(N2C[C@H](O)C[C@H]2CO)cc1-c1cccc(Cl)c1Cl [Example 229, (2S,4R)-2-(3,5-Bis-trifluoromethyl-phenyl)-N-[4-(2,3-dichloro-phenyl)-6-(4-hydroxy-2-hydroxymethyl-pyrrolidin-1-yl)-pyridin-3-yl]-N-methyl-isobutyramide] | – | – | 1.86 | 2.95
C[C@@H](O)CNc1cc(-c2ccccc2Cl)c(N(C)C(=O)C(C)(C)c2cc(C(F)(F)F)cc(C(F)(F)F)c2)cn1 [Example 73, (R)-2-(3,5-Bis-trifluoromethyl-phenyl)-N-[4-(2-chloro-phenyl)-6-(2-hydroxy-propylamino)-pyridin-3-yl]-N-methyl-isobutyramide] | 7.41 | 0.871 | – | –
Cc1ccc(F)cc1-c1cc(N2CC[C@H](O)[C@H]2CO)ncc1N(C)C(=O)C(C)(C)c1cc(C(F)(F)F)cc(C(F)(F)F)c1 [Example 276, (2R,3S)-2-(3,5-Bis-trifluoromethyl-phenyl)-N-[4-(5-fluoro-2-methyl-phenyl)-6-(3-hydroxy-2-hydroxymethyl-pyrrolidin-1-yl)-pyridin-3-yl]-N-methyl-isobutyramide] | – | – | 1.38 | 1.45
CCN(CCO)c1cc(-c2ccccc2Cl)c(N(C)C(=O)C(C)(C)c2cc(C(F)(F)F)cc(C(F)(F)F)c2)cn1 [Example 55, 2-(3,5-Bis-trifluoromethyl-phenyl)-N-{4-(2-chloro-phenyl)-6-[ethyl-(2-hydroxy-ethyl)-amino]-pyridin-3-yl}-N-methyl-isobutyramide] | 11.2 | 3.31 | – | –
Cc1cc(C)cc(C(C)(C)C(=O)N(C)c2cnc(N3C[C@H](O)C[C@H]3CO)cc2-c2ccccc2C)c1 [Example 20, (2S,4R)-2-(3,5-Dimethyl-phenyl)-N-[6-(4-hydroxy-2-hydroxymethyl-pyrrolidin-1-yl)-4-o-tolyl-pyridin-3-yl]-N-methyl-isobutyramide] | 6.17 | 1.15 | – | –
CN(C(=O)C(C)(C)c1cc(C(F)(F)F)cc(C(F)(F)F)c1)c1cnc(N2CCN(C(=O)C3CC3)CC2)cc1-c1ccccc1Cl [Example 62, 2-(3,5-Bis-trifluoromethyl-phenyl)-N-[4-(2-chloro-phenyl)-6-(4-cyclopropanecarbonyl-piperazin-1-yl)-pyridin-3-yl]-N-methyl-isobutyramide] | 6.61 | 1.02 | – | –
CN(C(=O)C(C)(C)c1cc(F)cc(C(F)(F)F)c1)c1cnc(N2C[C@H](O)C[C@H]2CO)cc1-c1ccccc1Cl [Example 5, (2S,4R)-N-[4-(2-Chloro-phenyl)-6-(4-hydroxy-2-hydroxymethyl-pyrrolidin-1-yl)-pyridin-3-yl]-2-(3-fluoro-5-trifluoromethyl-phenyl)-N-methyl-isobutyramide] | 1.74 | 1.55 | – | –
Cc1cc(F)ccc1-c1cc(N2C[C@H](O)C[C@H]2CO)ncc1N(C)C(=O)C(C)(C)c1cc(Cl)cc(Cl)c1 [Example 23, (2S,4R)-2-(3,5-Dichloro-phenyl)-N-[4-(4-fluoro-2-methyl-phenyl)-6-(4-hydroxy-2-hydroxymethyl-pyrrolidin-1-yl)-pyridin-3-yl]-N-methyl-isobutyramide] | 1.58 | 0.891 | – | –
Cc1cc(F)ccc1-c1cc(N2CCC[C@@H]2CO)ncc1N(C)C(=O)C(C)(C)c1cc(C(F)(F)F)cc(C(F)(F)F)c1 [Example 93, (R)-2-(3,5-Bis-trifluoromethyl-phenyl)-N-[4-(4-fluoro-2-methyl-phenyl)-6-(2-hydroxymethyl-pyrrolidin-1-yl)-pyridin-3-yl]-N-methyl-isobutyramide] | 7.41 | 1.12 | – | –
Cc1cc(F)ccc1-c1cc(N2CCNC(=O)CC2)ncc1N(C)C(=O)C(C)(C)c1cc(C(F)(F)F)cc(C(F)(F)F)c1 [Example 164, 2-(3,5-Bis-trifluoromethyl-phenyl)-N-[4-(4-fluoro-2-methyl-phenyl)-6-(5-oxo-[1,4]diazepan-1-yl)-pyridin-3-yl]-N-methyl-isobutyramide] | 15.8 | 1.62 | – | –
Cc1cc(F)ccc1-c1cc(N2CCC[C@H]2CN2CCCC2)ncc1N(C)C(=O)C(C)(C)c1cc(C(F)(F)F)cc(C(F)(F)F)c1 [Example 169, (S)-2-(3,5-Bis-trifluoromethyl-phenyl)-N-[4-(4-fluoro-2-methyl-phenyl)-6-(2-pyrrolidin-1-ylmethyl-pyrrolidin-1-yl)-pyridin-3-yl]-N-methyl-isobutyramide] | 21.4 | 1.41 | – | –
CN(C(=O)C(C)(C)c1cc(C(F)(F)F)cc(C(F)(F)F)c1)c1cnc(N2CC[C@H](O)[C@H]2CO)cc1-c1cccc(Cl)c1Cl [Example 271, (2R,3S)-2-(3,5-Bis-trifluoromethyl-phenyl)-N-[4-(2,3-dichloro-phenyl)-6-(3-hydroxy-2-hydroxymethyl-pyrrolidin-1-yl)-pyridin-3-yl]-N-methyl-isobutyramide] | – | – | 1.38 | 3.02
COc1cc(OC)cc(C(C)(C)C(=O)N(C)c2cnc(N3CCC[C@H]3CO)cc2-c2ccc(F)cc2C)c1 [Example 402, (S)-2-(3,5-Dimethoxy-phenyl)-N-[4-(4-fluoro-2-methyl-phenyl)-6-(2-hydroxymethyl-pyrrolidin-1-yl)-pyridin-3-yl]-N-methyl-isobutyramide] | – | – | 4.68 | –
COc1cc(OC)cc(C(C)(C)C(=O)N(C)c2cnc(NCCO)cc2-c2ccc(F)cc2C)c1 [Example 401, 2-(3,5-Dimethoxy-phenyl)-N-[4-(4-fluoro-2-methyl-phenyl)-6-(2-hydroxy-ethylamino)-pyridin-3-yl]-N-methyl-isobutyramide] | – | – | 20 | –
COc1cc(OC)cc(C(C)(C)C(=O)N(C)c2cnc(N3C[C@H](O)C[C@H]3CO)cc2-c2ccccc2C)c1 [Example 400, (2S,4R)-2-(3,5-Dimethoxy-phenyl)-N-[6-(4-hydroxy-2-hydroxymethyl-pyrrolidin-1-yl)-4-o-tolyl-pyridin-3-yl]-N-methyl-isobutyramide] | – | – | 6.03 | –
COc1cc(OC)cc(C(C)(C)C(=O)N(C)c2cnc(N3C[C@H](O)C[C@H]3CO)cc2-c2ccc(F)cc2C)c1 [Example 403, (2S,4R)-2-(3,5-Dimethoxy-phenyl)-N-[4-(4-fluoro-2-methyl-phenyl)-6-(4-hydroxy-2-hydroxymethyl-pyrrolidin-1-yl)-pyridin-3-yl]-N-methyl-isobutyramide] | – | – | 5.75 | –
